{"source": "patent US8883771B2", "about": "“Bivalent inhibitors of IAP proteins and therapeutic methods using the same” (The Regents of the University of Michigan, priority 2012, dated 2014)", "key": {"[1]": {"system": "SK-OV-3 ovarian cancer cell line", "assay": "Inhibition of cell growth in SK-OV-3 ovarian cancer cell line", "format": "cell-based, human"}, "[2]": {"system": "MDA-MB-231 breast cancer cell line", "assay": "Inhibition of cell growth in MDA-MB-231 breast cancer cell line", "format": "cell-based, human"}, "[3]": {"details": "SK-OV-3 ovarian cancer cell line"}, "[4]": {"details": "MDA-MB-231 breast cancer cell line"}, "[5]": {"details": "Homo sapiens, SK-OV-3, SK-OV-3 ovarian cancer cell line"}, "[6]": {"details": "Homo sapiens, MDA-MB-231, MDA-MB-231 breast cancer cell line"}, "[7]": {"details": "Homo sapiens, SK-OV-3 ovarian cancer cell line"}, "[8]": {"details": "Homo sapiens, MDA-MB-231 breast cancer cell line"}}}
{"smiles": "CN[C@@H](C)C(=O)N[C@H]1CN(C(=O)Nc2ccc(NC(=O)N3CC[C@H]4CC[C@@H](C(=O)N[C@@H]5C[C@@H]5c5ccccc5)N4C(=O)[C@@H](NC(=O)[C@H](C)NC)C3)cc2)CC[C@H]2CC[C@@H](C(=O)N[C@@H]3C[C@@H]3c3ccccc3)N2C1=O", "note": "(stereo in doubt) [Example 26]", "values": [{"measurement": "IC50", "setting": "[1]; [3]", "value": "< 1000", "unit": "nM"}, {"measurement": "IC50", "setting": "[2]; [4]", "value": "< 1000", "unit": "nM"}]}
{"smiles": "CN[C@@H](C)C(=O)N[C@H]1CN(C(=O)Nc2ccc(-c3ccc(NC(=O)N4CC[C@H]5CC[C@@H](C(=O)NC(c6ccccc6)c6ccccc6)N5C(=O)[C@@H](NC(=O)[C@H](C)NC)C4)c(C)c3)cc2C)CC[C@H]2CCC(C(=O)NC(c3ccccc3)c3ccccc3)N2C1=O", "note": "(some centres unmarked) [Example 15]", "values": [{"measurement": "IC50", "setting": "[1]; [5]", "value": "< 1000", "unit": "nM"}, {"measurement": "IC50", "setting": "[2]; [6]", "value": "< 1000", "unit": "nM"}]}
{"smiles": "CN[C@@H](C)C(=O)N[C@H]1CN(C(=S)Nc2ccc(NC(=S)N3CC[C@H]4CC[C@@H](C(=O)NC(c5ccccc5)c5ccccc5)N4C(=O)[C@@H](NC(=O)[C@H](C)NC)C3)cc2)CC[C@H]2CCC(C(=O)NC(c3ccccc3)c3ccccc3)N2C1=O", "note": "(some centres unmarked) [Example 16]", "values": [{"measurement": "IC50", "setting": "[2]; [6]", "value": "< 100", "unit": "nM"}]}
{"smiles": "CN[C@@H](C)C(=O)N[C@H]1CN(C(=O)Nc2ccc(CCc3ccc(NC(=O)N4CC[C@H]5CC[C@@H](C(=O)NC(c6ccccc6)c6ccccc6)N5C(=O)[C@@H](NC(=O)[C@H](C)NC)C4)cc3)cc2)CC[C@H]2CCC(C(=O)NC(c3ccccc3)c3ccccc3)N2C1=O", "note": "(some centres unmarked) [Example 17]", "values": [{"measurement": "IC50", "setting": "[2]; [6]", "value": "< 100", "unit": "nM"}]}
{"smiles": "CN[C@@H](C)C(=O)N[C@H]1CN(C(=S)Nc2ccc(Cc3ccc(NC(=S)N4CC[C@H]5CC[C@@H](C(=O)NC(c6ccccc6)c6ccccc6)N5C(=O)[C@@H](NC(=O)[C@H](C)NC)C4)cc3)cc2)CC[C@H]2CCC(C(=O)NC(c3ccccc3)c3ccccc3)N2C1=O", "note": "(some centres unmarked) [Example 18]", "values": [{"measurement": "IC50", "setting": "[2]; [6]", "value": "< 100", "unit": "nM"}]}
{"smiles": "CNCC(=O)N[C@H]1CN(C(=O)N2CCN(C(=O)N3CC[C@H]4CC[C@@H](C(=O)NC(c5ccccc5)c5ccccc5)N4C(=O)[C@@H](NC(=O)[C@H](C)NC)C3)CC2)CC[C@H]2CCC(C(=O)NC(c3ccccc3)c3ccccc3)N2C1=O", "note": "(some centres unmarked) [Example 20]", "values": [{"measurement": "IC50", "setting": "[1]; [5]", "value": "< 10000", "unit": "nM"}, {"measurement": "IC50", "setting": "[2]; [6]", "value": "< 10000", "unit": "nM"}]}
{"smiles": "CN[C@@H](C)C(=O)N[C@H]1CN(C(=O)Oc2ccc(C(C)(C)c3ccc(OC(=O)N4CC[C@H]5CC[C@@H](C(=O)NC(c6ccccc6)c6ccccc6)N5C(=O)[C@@H](NC(=O)[C@H](C)NC)C4)cc3)cc2)CC[C@H]2CCC(C(=O)NC(c3ccccc3)c3ccccc3)N2C1=O", "note": "(some centres unmarked) [Example 22]", "values": [{"measurement": "IC50", "setting": "[1]; [5]", "value": "< 1000", "unit": "nM"}, {"measurement": "IC50", "setting": "[2]; [6]", "value": "< 100", "unit": "nM"}]}
{"smiles": "CN[C@@H](C)C(=O)N[C@H]1CN(S(=O)(=O)c2cccc(S(=O)(=O)N3CC[C@H]4CC[C@@H](C(=O)NC(c5ccccc5)c5ccccc5)N4C(=O)[C@@H](NC(=O)[C@H](C)NC)C3)c2)CC[C@H]2CCC(C(=O)NC(c3ccccc3)c3ccccc3)N2C1=O", "note": "(some centres unmarked) [Example 23]", "values": [{"measurement": "IC50", "setting": "[1]; [5]", "value": "< 100", "unit": "nM"}, {"measurement": "IC50", "setting": "[2]; [6]", "value": "< 100", "unit": "nM"}]}
{"smiles": "CN[C@@H](C)C(=O)N[C@H]1CN(C(=O)Nc2ccc(NC(=O)N3CC[C@H]4CC[C@@H](C(=O)N[C@@H]5C[C@@H]5c5ccccc5)N4C(=O)[C@@H](NC(=O)[C@H](C)NC)C3)cc2)CC[C@H]2CC[C@@H](C(=O)N[C@@H]3C[C@@H]3c3ccccc3)N2C1=O", "note": "[Example 25]", "values": [{"measurement": "IC50", "setting": "[1]; [5]", "value": "< 1000", "unit": "nM"}, {"measurement": "IC50", "setting": "[2]; [6]", "value": "< 1000", "unit": "nM"}]}
{"smiles": "CN[C@@H](C)C(=O)N[C@H]1CN(C(=O)Nc2ccc(NC(=O)N3CC[C@H]4CC[C@@H](C(=O)N[C@H]5C[C@@H]5c5ccccc5F)N4C(=O)[C@@H](NC(=O)[C@H](C)NC)C3)cc2)CC[C@H]2CC[C@@H](C(=O)N[C@H]3C[C@@H]3c3ccccc3F)N2C1=O", "note": "[Example 27]", "values": [{"measurement": "IC50", "setting": "[1]; [5]", "value": "< 5000", "unit": "nM"}, {"measurement": "IC50", "setting": "[2]; [6]", "value": "< 5000", "unit": "nM"}]}
{"smiles": "CN[C@@H](C)C(=O)N[C@H]1CN(C(=O)Nc2ccc(NC(=O)N3CC[C@H]4CC[C@@H](C(=O)N[C@@H]5C[C@H]5c5ccccc5)N4C(=O)[C@@H](NC(=O)[C@H](C)NC)C3)cc2)CC[C@H]2CC[C@@H](C(=O)N[C@@H]3C[C@H]3c3ccccc3)N2C1=O", "note": "[Example 30]", "values": [{"measurement": "IC50", "setting": "[1]; [5]", "value": "< 10000", "unit": "nM"}, {"measurement": "IC50", "setting": "[2]; [6]", "value": "< 10000", "unit": "nM"}]}
{"smiles": "CN[C@@H](C)C(=O)N[C@H]1CN(C(=O)Nc2ccc(NC(=O)N3CC[C@H]4CC[C@@H](C(=O)N[C@H]5C[C@@H]5c5ccccc5)N4C(=O)[C@@H](NC(=O)[C@H](C)NC)C3)cc2)CC[C@H]2CC[C@@H](C(=O)N[C@H]3C[C@@H]3c3ccccc3)N2C1=O", "note": "[Example 31]", "values": [{"measurement": "IC50", "setting": "[1]; [5]", "value": "< 1000", "unit": "nM"}, {"measurement": "IC50", "setting": "[2]; [6]", "value": "< 1000", "unit": "nM"}]}
{"smiles": "CN[C@@H](C)C(=O)N[C@H]1CN(C(=O)Nc2ccc(NC(=O)N3CC[C@H]4CC[C@@H](C(=O)N[C@H]5C[C@@H]5c5ccc(C(F)(F)F)cc5)N4C(=O)[C@@H](NC(=O)[C@H](C)NC)C3)cc2)CC[C@H]2CC[C@@H](C(=O)N[C@H]3C[C@@H]3c3ccc(C(F)(F)F)cc3)N2C1=O", "note": "[Example 35]", "values": [{"measurement": "IC50", "setting": "[1]; [5]", "value": "< 10000", "unit": "nM"}, {"measurement": "IC50", "setting": "[2]; [6]", "value": "< 10000", "unit": "nM"}]}
{"smiles": "CN[C@@H](C)C(=O)N[C@H]1CN(C(=O)NCc2cccc(CNC(=O)N3CC[C@H]4CC[C@@H](C(=O)N[C@H]5C[C@@H]5c5ccccc5)N4C(=O)[C@@H](NC(=O)[C@H](C)NC)C3)c2)CC[C@H]2CCC(C(=O)N[C@H]3C[C@@H]3c3ccccc3)N2C1=O", "note": "(some centres unmarked) [Example 38]", "values": [{"measurement": "IC50", "setting": "[1]; [5]", "value": "< 10000", "unit": "nM"}, {"measurement": "IC50", "setting": "[2]; [6]", "value": "< 10000", "unit": "nM"}]}
{"smiles": "CN[C@@H](C)C(=O)N[C@H]1CN(C(=O)NCCCCCCNC(=O)N2CC[C@H]3CC[C@@H](C(=O)N[C@H]4CCCC[C@@H]4c4ccccc4)N3C(=O)[C@@H](NC(=O)[C@H](C)NC)C2)CC[C@H]2CCC(C(=O)N[C@H]3CCCC[C@@H]3c3ccccc3)N2C1=O", "note": "(some centres unmarked) [Example 39]", "values": [{"measurement": "IC50", "setting": "[1]; [3]", "value": "< 1000", "unit": "nM"}, {"measurement": "IC50", "setting": "[2]; [4]", "value": "< 1000", "unit": "nM"}]}
{"smiles": "CN[C@@H](C)C(=O)N[C@H]1CN(C(=O)NCCCCCCNC(=O)N2CC[C@H]3CC[C@@H](C(=O)NC4Cc5ccccc5C4)N3C(=O)[C@@H](NC(=O)[C@H](C)NC)C2)CC[C@H]2CCC(C(=O)NC3Cc4ccccc4C3)N2C1=O", "note": "(some centres unmarked) [Example 45]", "values": [{"measurement": "IC50", "setting": "[1]; [5]", "value": "< 1000", "unit": "nM"}, {"measurement": "IC50", "setting": "[2]; [6]", "value": "< 1000", "unit": "nM"}]}
{"smiles": "CN[C@@H](C)C(=O)N[C@H]1CN(C(=O)NCCCCCCNC(=O)N2CC[C@H]3CC[C@@H](C(=O)NCCc4ccccc4)N3C(=O)[C@@H](NC(=O)[C@H](C)NC)C2)CC[C@H]2CCC(C(=O)NCCc3ccccc3)N2C1=O", "note": "(some centres unmarked) [Example 46]", "values": [{"measurement": "IC50", "setting": "[1]; [5]", "value": "< 1000", "unit": "nM"}, {"measurement": "IC50", "setting": "[2]; [6]", "value": "< 1000", "unit": "nM"}]}
{"smiles": "CN[C@@H](C)C(=O)N[C@H]1CN(C(=O)NCCCCCCNC(=O)N2CC[C@H]3CC[C@@H](C(=O)N[C@H]4CC[C@@H]4c4ccccc4)N3C(=O)[C@@H](NC(=O)[C@H](C)NC)C2)CC[C@H]2CCC(C(=O)N[C@H]3CC[C@@H]3c3ccccc3)N2C1=O", "note": "(some centres unmarked) [Example 47]", "values": [{"measurement": "IC50", "setting": "[1]; [7]", "value": "< 1000", "unit": "nM"}, {"measurement": "IC50", "setting": "[2]; [8]", "value": "< 1000", "unit": "nM"}]}
{"smiles": "CN[C@@H](C)C(=O)N[C@H]1CN(C(=O)NCCCCCCNC(=O)N2CC[C@H]3CC[C@@H](C(=O)N[C@H]4C[C@H](c5ccccc5)C4)N3C(=O)[C@@H](NC(=O)[C@H](C)NC)C2)CC[C@H]2CCC(C(=O)N[C@H]3C[C@H](c4ccccc4)C3)N2C1=O", "note": "(some centres unmarked) [Example 48]", "values": [{"measurement": "IC50", "setting": "[1]; [7]", "value": "< 10000", "unit": "nM"}, {"measurement": "IC50", "setting": "[2]; [8]", "value": "< 10000", "unit": "nM"}]}
